Experimental findings from PMC3187749, “Discovery of Diverse Small Molecule Chemotypes with Cell-Based PKD1 Inhibitory Activity” (PLoS ONE, 2011) are described below.

The term IC50 denotes the concentration that gives 50% inhibition. Broadly, the EC50 is the concentration at which the effect is half-maximal. As a reminder, the inhibition is the percentage by which the read-out fell short of the control.

The target of one experiment is T1, recombinant human PKD1 (Homo sapiens, UniProt Q15139).
T1 construct: His; purchased Millipore (Billerica, MA)
T1 sequence (Q15139 1-912): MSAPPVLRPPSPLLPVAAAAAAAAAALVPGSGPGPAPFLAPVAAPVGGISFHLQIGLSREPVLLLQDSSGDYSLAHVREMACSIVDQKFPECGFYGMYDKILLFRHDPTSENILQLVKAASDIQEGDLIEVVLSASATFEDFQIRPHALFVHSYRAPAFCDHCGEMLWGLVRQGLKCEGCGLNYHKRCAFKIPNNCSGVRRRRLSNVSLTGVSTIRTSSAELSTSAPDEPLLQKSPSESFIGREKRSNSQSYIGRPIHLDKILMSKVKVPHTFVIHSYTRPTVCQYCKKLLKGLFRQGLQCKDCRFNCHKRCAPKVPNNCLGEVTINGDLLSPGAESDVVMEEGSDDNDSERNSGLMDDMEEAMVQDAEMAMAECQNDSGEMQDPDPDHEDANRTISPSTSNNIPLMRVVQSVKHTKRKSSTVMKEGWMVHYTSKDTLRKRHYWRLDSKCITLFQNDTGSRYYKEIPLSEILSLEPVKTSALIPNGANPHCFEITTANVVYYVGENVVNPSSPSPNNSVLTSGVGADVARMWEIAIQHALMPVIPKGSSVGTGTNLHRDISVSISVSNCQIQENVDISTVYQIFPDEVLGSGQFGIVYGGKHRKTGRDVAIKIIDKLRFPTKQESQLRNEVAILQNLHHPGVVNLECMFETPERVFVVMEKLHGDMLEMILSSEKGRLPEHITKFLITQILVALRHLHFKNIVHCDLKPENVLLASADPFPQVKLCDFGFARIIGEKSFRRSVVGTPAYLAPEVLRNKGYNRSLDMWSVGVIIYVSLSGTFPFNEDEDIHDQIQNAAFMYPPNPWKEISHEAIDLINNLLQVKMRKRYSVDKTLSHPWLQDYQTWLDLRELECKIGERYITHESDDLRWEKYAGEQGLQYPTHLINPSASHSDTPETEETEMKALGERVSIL
Put plainly: In vitro radiometric PKD1 kinase assay. The experiment is classed as biochemical. Particulars: radiometric PKD1 kinase assay; mean ± range or SD of 2–4 independent experiments; read-out: In vitro PKD1 IC50. The procedure: (§1) Kinase reactions were initiated with the addition of ATP (50 µM ATP, 1.0 µCi γ-^33P-ATP; Perkin Elmer, Boston, MA) and incubated for 20 min at 30°C. Twenty-five µL of the reaction was spotted onto Whatman P81 filter paper (Whatman Inc., Clifton, NJ). Filter papers were then washed three times in 0.5% phosphoric acid, air-dried, and counted using an LS6500 multi-purpose scintillation counter (Beckman Coulter, Fullerton, CA). IC50 determinations were performed using GraphPad Prism software 5.0. Radiometric PKD2 and PKD3 in vitro kinase assays were performed as previously described.

The next experiment deals with T2, PKD2 (Homo sapiens, UniProt Q9BZL6).
T2 sequence (Q9BZL6 1-878): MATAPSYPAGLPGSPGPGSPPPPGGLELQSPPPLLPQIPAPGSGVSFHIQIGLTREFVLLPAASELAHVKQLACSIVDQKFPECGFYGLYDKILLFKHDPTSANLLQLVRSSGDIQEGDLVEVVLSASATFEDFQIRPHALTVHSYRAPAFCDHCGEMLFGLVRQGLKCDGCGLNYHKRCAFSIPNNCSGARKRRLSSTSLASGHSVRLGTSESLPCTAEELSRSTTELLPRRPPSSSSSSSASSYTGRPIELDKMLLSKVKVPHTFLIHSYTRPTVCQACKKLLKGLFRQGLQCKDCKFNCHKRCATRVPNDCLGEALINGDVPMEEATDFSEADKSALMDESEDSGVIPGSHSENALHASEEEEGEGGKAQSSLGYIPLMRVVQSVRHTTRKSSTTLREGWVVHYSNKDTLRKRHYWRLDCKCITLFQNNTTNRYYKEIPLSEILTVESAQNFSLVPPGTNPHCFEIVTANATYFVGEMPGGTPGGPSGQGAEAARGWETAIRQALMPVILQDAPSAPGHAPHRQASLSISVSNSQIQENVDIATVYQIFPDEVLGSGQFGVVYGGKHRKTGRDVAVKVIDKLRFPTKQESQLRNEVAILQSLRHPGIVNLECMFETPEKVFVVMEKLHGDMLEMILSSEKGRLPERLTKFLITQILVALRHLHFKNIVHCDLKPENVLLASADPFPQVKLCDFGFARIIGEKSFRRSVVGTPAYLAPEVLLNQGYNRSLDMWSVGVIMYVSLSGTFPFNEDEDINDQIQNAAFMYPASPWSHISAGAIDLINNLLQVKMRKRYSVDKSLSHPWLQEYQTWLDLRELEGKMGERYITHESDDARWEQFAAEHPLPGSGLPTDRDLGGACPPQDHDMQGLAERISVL
Put plainly: Radiometric PKD2 in vitro kinase assay. The note with it: preliminary in vitro data. The experiment is classed as biochemical. The procedure: as §1

Experiment [1] addresses T3, endogenous PKD1 (Ser916 phosphorylation) in LNCaP prostate cancer cells (Homo sapiens, UniProt Q15139).
T3 construct: phosphorylation of endogenously expressed PKD1 Ser^916; endogenous in cells; host or cells: LNCaP prostate cancer cells
T3 sequence (Q15139 1-912): T1 sequence (Q15139 1-912)
Put plainly: Western blot of PMA-induced phospho-Ser916-PKD1 in LNCaP cells. The experiment is classed as cell-based. The procedure:
Briefly, prostate cancer cells (LNCaP) were exposed to test compounds. Cells were lysed in buffer (200 mM Tris-HCl, pH 7.4, 100 µM 4-(2-aminoethyl) benzenesulfonyl fluoride, 1 mM EGTA, and 1% Triton X-100) and cell lysates were subjected to SDS-PAGE then electrotransferred to nitrocellulose membranes. Membranes were blocked with 5% nonfat milk in Tris-buffered saline. Membranes were probed with a primary antibody then followed by a secondary anti-mouse or anti-rabbit secondary antibody conjugated to horseradish peroxidase (1∶1000, Bio-Rad). Bands were visualized by the enhanced chemiluminescence Western blotting detection system (Amersham Biosciences). The primary antibodies included p-S916-PKD1 antibody (Millipore) and GAPDH (Enzo Life Sciences, Plymouth Meeting, PA).
[…] Whole cell lysates were immunoblotted for phosphorylated Ser^916-PKD1 with GAPDH serving as a loading control.
Background: A western blot detects proteins with antibodies after separation by electrophoresis.

The test system of the next experiment is CDK7. Put plainly: IMAP-based CDK7 counter screen. The format is biochemical. Particulars: concentrations up to 50 µM. The source says: (§2) It was also gratifying that, in general, our novel cell active PKD1 inhibitors appeared to be less promiscuous than PKD1 inhibitors having minimal to no cellular PKD1 inhibitory activity (Table 1). For example, CIDs 755673 and 1893668 display additional confirmed activity in six and seven, respectively, PubChem bioassays while CID 2011756 has confirmed activity in only one additional PubChem bioassay. […] In contrast, the remaining chemotypes registered as confirmed actives in 2–43 additional bioassays (Table 1). Additional chemical similarity searching, focusing on our four novel cell-active PKD1 inhibitory chemotypes, using MetaDrug also supports a comparative lack of promiscuity of these compounds.
Background: A counterscreen serves to expose hits that act by an unwanted route or on another target.

The test system of a further experiment is AKT. Put plainly: IMAP-based AKT counter screen. The experiment is classed as biochemical. Particulars: concentrations up to 50 µM.
Description: as §2

On to `O=C(Nc1ccc(CN2CCOCC2)cc1)c1ccc(-c2cccc(Cl)c2)o1` [CID 2011756, 5-(3-chlorophenyl)-N-[4-(morpholin-4-ylmethyl)phenyl]furan-2-carboxamide], for which the IC50 at recombinant human PKD1 is 3.2 ± 0.1 µM; against PKD2 it was 0.6 ± 0.1 µM. Further, in experiment [1] (LNCaP cells, PMA stimulation, n = 3, read-out: Cellular EC50 (phospho-Ser916-PKD1)), the EC50 turned out to be 10 ± 0.7 µM. Moreover, the “Concentration dependence of inhibition of PMA-induced endogenous PKD1 activity” value in experiment [1] (LNCaP cells, Western blot) is reported as “concentration-dependent inhibition”. Moreover, the inhibition at 50 µM in experiment [1] (LNCaP, read-out: Inhibition of phosphorylation of Ser916-PKD1) was > 50%. For the same molecule, the CDK7 kinase inhibition result in the experiment with CDK7 is listed as “no kinase inhibition”. Further, in the experiment on AKT, the AKT kinase inhibition result is “no kinase inhibition”.
